Test results taken from patent US20100160324A1, “PYRAZOLE DERIVATIVES AS THAT MODULATE THE ACTIVITY OF CDK, GSK AND AURORA KINASES” (ASTEX THERAPEUTICS LIMITED, priority 2004, published 2010).
pIC50: −log10 of the molar value. Blank lines part the entries; values can stand above or below the compound they belong to.

Experiments:
[1] = tested on: treatment-refractory primary Acute Myelogenous Leukemia (AML) cells from patients; conditions: cited from earlier work
[2] = tested on: malignant cells from B-cell chronic lymphocytic leukemia (B-CLL); conditions: in vitro; cited from earlier work
[3] = biological target: T1, CDK1/CyclinB (Homo sapiens, UniProt P06493); test: Activated CDK1/CyclinB activity assay; assay type: biochemical; conditions: read-out: IC50 against CDK1 activity
T1 construct: purchased Upstate Discovery
Method: Measurement of Activated CDK1/Cycling Activity Assay (IC50)
CDK1/CyclinB assay is identical to the CDK2/CyclinA above except that CDK1/CyclinB (Upstate Discovery) is used and the enzyme is diluted to 6.25 nM.

[4] = biological target: Activated CDK2/CyclinA (Homo sapiens, UniProt P24941); test: Activated CDK2/CyclinA kinase inhibitory activity assay; assay type: biochemical; conditions: read-out: IC50 against CDK2 activity
Method: Measurement of Activated CDK2/CyclinA Kinase Inhibitory Activity Assay (IC50)
Compounds of the invention were tested for kinase inhibitory activity using the following protocol.
Activated CDK2/CyclinA (Brown et al, Nat. Cell Biol., 1, pp 438-443, 1999; Lowe, E. D., et al Biochemistry, 41, pp 15625-15634, 2002) is diluted to 125 pM in 2.5× strength assay buffer (50 mM MOPS pH 7.2, 62.5 mM β-glycerophosphate, 12.5 mM EDTA, 37.5 mM MgCl2, […], 2.5 mM DTT, 2.5 mM sodium orthovanadate, 0.25 mg/ml bovine serum albumin), and 10 μl mixed with 10 μl of histone substrate mix (60 μl bovine histone H1 (Upstate Biotechnology, 5 mg/ml), 940 μl H2O, 35μ Ci γ^33P-ATP) and added to 96 well plates along with 5 μ of various dilutions of the test compound in DMSO (up to 2.5%). The reaction is allowed to proceed for 2 to 4 hours before being stopped with an excess of ortho-phosphoric acid (5 μl at 2%).
γ^33P-ATP which remains unincorporated into the histone H1 is separated from phosphorylated histone H1 on a Millipore MAPH filter plate. The wells of the MAPH plate are wetted with 0.5% orthophosphoric acid, and then the results of the reaction are filtered with a Millipore vacuum filtration unit through the wells. […] Once the filters have dried, 20 μl of Microscint 20 scintillant is added, and then counted on a Packard Topcount for 30 seconds. […]

T1 sequence (P06493 whole entry): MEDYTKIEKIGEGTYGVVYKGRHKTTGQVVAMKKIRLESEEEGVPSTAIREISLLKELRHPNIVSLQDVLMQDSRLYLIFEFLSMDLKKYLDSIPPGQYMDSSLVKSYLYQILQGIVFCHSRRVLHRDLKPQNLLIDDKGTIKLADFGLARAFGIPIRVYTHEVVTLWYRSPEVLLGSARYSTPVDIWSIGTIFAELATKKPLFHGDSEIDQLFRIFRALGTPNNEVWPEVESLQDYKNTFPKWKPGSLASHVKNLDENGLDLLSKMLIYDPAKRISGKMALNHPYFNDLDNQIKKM
T1 sequence (P14635 whole entry partner): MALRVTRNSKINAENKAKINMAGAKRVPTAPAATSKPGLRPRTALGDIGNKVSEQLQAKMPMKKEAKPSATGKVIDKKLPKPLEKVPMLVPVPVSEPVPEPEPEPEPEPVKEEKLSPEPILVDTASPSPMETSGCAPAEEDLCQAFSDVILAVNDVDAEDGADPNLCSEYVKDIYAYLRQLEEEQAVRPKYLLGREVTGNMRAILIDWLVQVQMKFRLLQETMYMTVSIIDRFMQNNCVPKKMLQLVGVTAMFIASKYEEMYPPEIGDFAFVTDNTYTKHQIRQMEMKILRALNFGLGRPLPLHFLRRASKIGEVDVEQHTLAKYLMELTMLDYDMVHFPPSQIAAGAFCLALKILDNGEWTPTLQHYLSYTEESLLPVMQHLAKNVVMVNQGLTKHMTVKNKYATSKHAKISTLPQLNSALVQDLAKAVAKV

SMILES: Cc1cc(Nc2cc(N3CCN(C)CC3)nc(Sc3ccc(NC(=O)C4CC4)cc3)n2)n[nH]1 [VX-680]
killing of treatment-refractory primary AML cells [1]: potently killed

SMILES: CC[C@H](CO)Nc1nc(NCc2ccccc2)c2ncn(C(C)C)c2n1 [CYC 202]
apoptosis of malignant B-CLL cells [2]: induce in vitro apoptosis

SMILES: CN1CC[C@H](c2c(O)cc(O)c3c(=O)cc(-c4ccccc4Cl)oc23)[C@H](O)C1 [Flavopiridol]
apoptosis of malignant B-CLL cells [2]: induce in vitro apoptosis

pIC50 [3]: > 6.00
pIC50 [4]: > 6.00
SMILES: O=C(Nc1c[nH]nc1-c1cccnc1)c1c(F)cccc1F [Example 1, 2,6-difluoro-N-(3-pyridin-3-yl-1H-pyrazol-4-yl)-benzamide]
